PMC2954458 (Biochemistry, 2010)

Target: Pdr5 (Saccharomyces cerevisiae, UniProt P33302)
Assay: ATPase assay, purified plasma membrane vesicles, Δpdr5 background subtracted
Format: biochemical
Conditions: 100 mM MOPS pH 7.4, 50 mM KCl, 10 mM MgCl2, 5 mM NaN3, 35 °C

Sequence of Pdr5 (P33302 whole entry): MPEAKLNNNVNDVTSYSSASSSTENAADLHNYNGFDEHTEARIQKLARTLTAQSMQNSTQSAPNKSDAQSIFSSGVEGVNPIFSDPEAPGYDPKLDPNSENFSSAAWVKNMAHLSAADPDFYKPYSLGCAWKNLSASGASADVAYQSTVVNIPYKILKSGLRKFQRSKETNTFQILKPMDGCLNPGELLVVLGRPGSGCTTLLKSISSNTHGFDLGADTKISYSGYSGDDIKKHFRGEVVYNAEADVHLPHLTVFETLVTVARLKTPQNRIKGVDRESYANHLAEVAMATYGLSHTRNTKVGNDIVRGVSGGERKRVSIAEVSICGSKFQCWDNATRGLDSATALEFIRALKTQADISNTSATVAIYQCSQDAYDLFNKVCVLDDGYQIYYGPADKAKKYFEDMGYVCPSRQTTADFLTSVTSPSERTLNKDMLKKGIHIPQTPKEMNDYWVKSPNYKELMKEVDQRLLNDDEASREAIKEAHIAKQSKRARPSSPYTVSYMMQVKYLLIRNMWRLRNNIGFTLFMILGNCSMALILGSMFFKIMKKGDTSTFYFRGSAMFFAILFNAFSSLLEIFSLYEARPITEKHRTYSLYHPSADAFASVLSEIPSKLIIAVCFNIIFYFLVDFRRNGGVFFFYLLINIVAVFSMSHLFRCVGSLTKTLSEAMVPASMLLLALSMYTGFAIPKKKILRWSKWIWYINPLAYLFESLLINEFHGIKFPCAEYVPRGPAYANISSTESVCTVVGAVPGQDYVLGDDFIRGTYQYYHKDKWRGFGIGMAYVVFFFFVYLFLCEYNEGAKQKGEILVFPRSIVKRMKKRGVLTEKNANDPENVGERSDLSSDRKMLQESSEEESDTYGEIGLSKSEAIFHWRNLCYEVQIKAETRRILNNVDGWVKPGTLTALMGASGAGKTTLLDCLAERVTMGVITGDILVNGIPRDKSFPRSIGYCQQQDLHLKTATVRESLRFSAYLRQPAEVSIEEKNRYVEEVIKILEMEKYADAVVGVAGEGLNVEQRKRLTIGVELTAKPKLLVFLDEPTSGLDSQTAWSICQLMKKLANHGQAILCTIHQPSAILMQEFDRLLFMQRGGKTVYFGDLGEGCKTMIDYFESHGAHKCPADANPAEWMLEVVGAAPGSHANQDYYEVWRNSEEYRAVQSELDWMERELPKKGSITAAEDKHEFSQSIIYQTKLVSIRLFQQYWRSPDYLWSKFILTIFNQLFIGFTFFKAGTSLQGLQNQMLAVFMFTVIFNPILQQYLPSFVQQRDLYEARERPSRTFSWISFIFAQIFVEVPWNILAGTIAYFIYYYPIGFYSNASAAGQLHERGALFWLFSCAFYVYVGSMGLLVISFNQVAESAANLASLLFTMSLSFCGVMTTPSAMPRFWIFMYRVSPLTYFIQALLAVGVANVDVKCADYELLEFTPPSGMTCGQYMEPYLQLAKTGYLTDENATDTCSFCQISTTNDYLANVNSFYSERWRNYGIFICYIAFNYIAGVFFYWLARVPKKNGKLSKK

Nc1ncnc2c1ncn2[C@@H]1O[C@H](COP(=O)(O)OP(=O)(O)OP(=O)(O)O)[C@@H](O)[C@H]1O [ATP]
Km: There was little or no difference in the observed Kms
